≈ marks a conversion by molar mass, not a printed value.
system: P388; assay: Cytotoxicity against mouse P388 cells; format: functional, cell-based

Row | SMILES | IC50 [µg/mL]
1 | CC1(C)CCC[C@]2(C)[C@H]3C[C@@H](O)[C@]4(C)[C@H]5OC(=O)C=C5[C@@H](O)C[C@H]4[C@]3(C)CC[C@@H]12 | 0.4 (≈ 0.994 µM)
2 | CC(=O)O[C@@H]1C[C@@H]2[C@@]3(C)CCCC(C)(C)[C@@H]3CC[C@@]2(C)[C@@H]2C[C@H](O)C3=CC(=O)O[C@@H]3[C@@]12C | 2.1 (≈ 4.72 µM)
3 | CC(=O)OC[C@]1(C)CCC[C@]2(C)[C@H]3CC[C@@]4(C)[C@@H](CC=C5C(=O)O[C@@H](O)[C@@H]54)[C@]3(C)CC[C@@H]12 | 0.9 (≈ 2.02 µM)

Source: ChEMBL document CHEMBL1158215, “Three new cytotoxic sesterterpenes from the marine sponge Hyrtios cf. erectus” (J Nat Prod, 1996)
